Assay results published in patent US12257245B2, “Methods and compositions for inhibition of EGF/EGFR pathway in combination with anaplastic lymphoma kinase inhibitors” (In3Bio Ltd., priority 2018, dated 2025).

Legend:
[1] = target: ALK (Homo sapiens, UniProt Q9UM73); conditions: cited from earlier work
[2] = in vivo; cited from earlier work
[3] = system: pEGFR (TYR 1068), pSTAT3 (TYR 705), pAKT (SER 473), pERK1/2 (THR 202/TYR 204) in DLD1 cells; assay: Western blot of signaling in DLD1 cells; type: cell-based; conditions: 2 hour (BVN22E antibodies alone: 2 and 24 hour)
Description: The effects of BVN22E antibodies were investigated in DLD1 cells via Western Blots, see FIGS. 42 and 43.
The effect of Trametinib treatment in the DLD1 cell line was also assessed in a western blot assay and the results are presented in FIG. 45. […] Inhibition of pStat3 and pERK1/2 were observed, though only at concentrations beyond the physiological concentrations of Trametinib used in patients.
BVN22E antibodies alone inhibited phosphorylation of EGFR.

Sequence of ALK (Q9UM73 19-1620): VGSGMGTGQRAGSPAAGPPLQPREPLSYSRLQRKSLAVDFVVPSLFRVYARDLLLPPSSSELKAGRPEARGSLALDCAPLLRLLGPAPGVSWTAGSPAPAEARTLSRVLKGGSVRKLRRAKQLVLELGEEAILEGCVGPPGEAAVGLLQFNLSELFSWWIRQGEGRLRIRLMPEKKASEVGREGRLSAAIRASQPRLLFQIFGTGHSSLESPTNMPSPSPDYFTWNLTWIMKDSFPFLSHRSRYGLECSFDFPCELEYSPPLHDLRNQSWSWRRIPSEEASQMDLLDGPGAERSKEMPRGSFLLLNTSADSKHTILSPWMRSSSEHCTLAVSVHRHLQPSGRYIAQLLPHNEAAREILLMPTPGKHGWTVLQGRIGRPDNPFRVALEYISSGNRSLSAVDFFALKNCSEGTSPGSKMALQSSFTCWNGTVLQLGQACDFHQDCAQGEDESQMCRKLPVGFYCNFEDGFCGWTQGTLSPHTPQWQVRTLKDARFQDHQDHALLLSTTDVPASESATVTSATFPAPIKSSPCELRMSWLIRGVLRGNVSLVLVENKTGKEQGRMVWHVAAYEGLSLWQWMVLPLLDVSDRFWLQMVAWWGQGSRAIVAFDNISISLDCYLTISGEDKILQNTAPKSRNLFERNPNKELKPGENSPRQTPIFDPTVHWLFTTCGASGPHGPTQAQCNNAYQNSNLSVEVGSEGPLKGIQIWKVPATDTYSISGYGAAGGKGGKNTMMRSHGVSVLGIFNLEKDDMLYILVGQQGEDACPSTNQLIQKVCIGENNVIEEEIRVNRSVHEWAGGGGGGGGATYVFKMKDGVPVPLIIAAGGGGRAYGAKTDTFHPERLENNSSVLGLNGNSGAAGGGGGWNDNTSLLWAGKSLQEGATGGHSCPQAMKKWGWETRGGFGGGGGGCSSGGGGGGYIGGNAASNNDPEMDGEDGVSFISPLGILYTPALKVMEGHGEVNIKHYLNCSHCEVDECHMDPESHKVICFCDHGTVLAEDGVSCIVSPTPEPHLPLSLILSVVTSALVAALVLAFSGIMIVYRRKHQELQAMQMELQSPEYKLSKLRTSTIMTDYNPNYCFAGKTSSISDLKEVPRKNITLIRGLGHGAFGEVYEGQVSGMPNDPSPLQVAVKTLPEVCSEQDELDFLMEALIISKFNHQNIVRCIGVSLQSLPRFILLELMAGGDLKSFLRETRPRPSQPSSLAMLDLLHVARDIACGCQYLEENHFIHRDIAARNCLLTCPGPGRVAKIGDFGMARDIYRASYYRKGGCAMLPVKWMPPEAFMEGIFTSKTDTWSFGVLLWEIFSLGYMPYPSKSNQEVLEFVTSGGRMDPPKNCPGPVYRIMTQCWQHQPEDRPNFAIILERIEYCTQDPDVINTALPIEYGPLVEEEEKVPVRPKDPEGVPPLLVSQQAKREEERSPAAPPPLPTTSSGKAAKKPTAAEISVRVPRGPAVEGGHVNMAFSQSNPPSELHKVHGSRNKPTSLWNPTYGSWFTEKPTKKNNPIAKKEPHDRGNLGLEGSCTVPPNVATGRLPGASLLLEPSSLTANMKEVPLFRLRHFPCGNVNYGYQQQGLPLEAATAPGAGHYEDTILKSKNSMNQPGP

## Cc1cc(Nc2ncc(Cl)c(Nc3ccccc3S(=O)(=O)C(C)C)n2)c(OC(C)C)cc1C1CCNCC1 [Ceritinib]
[1]; relative to crizotinib
  potency for inhibiting alk compared with crizotinib: 20 times

## C[C@@H]1CN(C(=O)c2ccc(NC(=O)c3cc(O[C@H](C)c4c(Cl)ccc(F)c4Cl)c(N)nn3)cc2)C[C@H](C)N1 [Ensartinib]
[1]
  IC50: < 0.4 nM

## C[C@H]1Oc2cc(cnc2N)-c2c(nn(C)c2C#N)CN(C)C(=O)c2ccc(F)cc21 [Lorlatinib]
[2]
  CNS penetration: highly CNS-penetrant

## CC(=O)Nc1cccc(-n2c(=O)n(C3CC3)c(=O)c3c(Nc4ccc(I)cc4F)n(C)c(=O)c(C)c32)c1 [Trametinib]
[3]
  pEGFR: no effect
